Results from patent US20250270513A1, “METHOD FOR PRODUCING CULTURED TISSUE, AND PREPARATION FOR EXTERNAL APPLICATION” (National University Corporation Ehime University, priority 2019, published 2025).

Legend:
[1] = test system: FGF2 mRNA; assay: qPCR of FGF2 gene in monolayer fibroblasts (Test Example 3-2); type: cell-based, human; conditions: for FGF2 expression level compared to control without trehalose (vehicle): after 3 hours of culture
Procedure: • (1) NHDF was seeded on a cell culture dish containing 1% FCS and 1% ABAM-containing DMEM medium containing 0, 30, and 100 mg/mL trehalose so as to be 5.5×10^4 cells/cm^2, and cultured for 3, 24, or 48 hours. • (2) Cells under each condition were collected, and mRNA was extracted using RNeasy Mini Kit (manufactured by QIAGEN). CDNA was prepared from mRNA using iScript cDNA Synthesis kit (manufactured by B10-RAD Laboratories). The method was performed according to each manual. Next, quantitative PCR (qPCR) of FGF2 gene was performed. For the reaction, Fast Start Universal Probe Master (Rox) (Roche) and StepOnePlue Real time PCR system were used. As a primer set, TaqMan probes for FGF2 (ThermoFisher Scientific) described in Table 5 were used. GAPDH was used as a reference gene. The number of samples used in each condition was 3.

[2] = test system: human normal skin keratinocytes; assay: Culture of keratinocytes alone without collagen gel containing fibroblasts (Test Example 1); type: cell-based; conditions: 100 mg/mL trehalose in medium, no fibroblast collagen gel
Procedure: (§1) • (2) Next, the collagen gel (layered dermal cell structure) containing NHDF was pre-cultured for 5 days using a DMEM medium containing 50 μg/ml ascorbic acid, 10 v/v % FCS, and 1 v/v % ABAM. Next, human normal skin keratinocytes suspended in MCDB medium were seeded on the collagen gel surface so as to be 1.28×10^5 cells/cm^2, and a medium obtained by mixing equal amounts of MCDB Type-II medium (Growth Medium 2 in JP-B2-3066624) and EGM was added to an external liquid of the cell culture insert and the inside of the insert, followed by culturing at 37° C. for 2 days.
On the other hand, when 100 mg/mL trehalose was added to the medium of (2) without collagen gel containing fibroblasts and culture was performed with keratinocytes alone, formation of epithelial tissue layer was not observed as in the absence of trehalose.

[3] = test system: ERK1/2 (Thr202/Tyr204 phosphorylated); assay: Western blotting of phosphorylated ERK1/2 in fibroblasts (Test Example 3-1); type: cell-based, human; conditions: 0, 10, 100 mg/mL trehalose in medium, 24 hours
Procedure: (§2) The cells were further DNA-stained with PI and subjected to FCM, and the proportion of each cell cycle was examined.
(§3) (3) Furthermore, proteins were extracted from the fibroblasts obtained in (1) using RIPA buffer (1% protein inhibitor (manufactured by SIGMA)+Phosphatase Inhibitor cocktail (manufactured by SIGMA)). Then, 10 μg of protein per sample was separated by SDS-PAGE by a conventional method, transferred to a PVDF membrane, and then subjected to Western blotting. Phosphorylated ERK1/2 and phosphorylated AKT were detected by ECL Prime Western Blotting Detection Reagent (manufactured by GE Healthcare), using Phospho-p44/p42 MAPK (Erk1/2) (Thr202/Tyr204) (D13.14.4E) XP Rabbit mAb (#4300, Cell Signaling) and Phospho-Akt (Ser473) antibody (#9271, manufactured by Cell Signaling Technology) as a primary antibody, and an anti-rabbit IgG antibody and an anti-mouse IgG antibody manufactured by PROMEGA were used as secondary antibodies, and visualized by Image Quant LAS4010 (manufactured by GE Healthcare).

[4] = test system: human normal skin keratinocytes on collagen gel containing normal human skin fibroblasts (NHDF); assay: Three-dimensional cultured skin on a sugar-containing dermal cell structure (Test Example 1); type: cell-based
Procedure: Subsequently, about 1 mL of the gel obtained was poured into a transwell-collagen coated insert (catalog number: 3492, manufactured by Costar; pore size: 3.0 μm, surface area: 4.67 cm^2), which is a cell culture insert, and allowed to stand in an incubator for 5 minutes or more. 5 mL of DMEM containing 10 v/v % FCS and 1 v/v % ABAM (Antibiotics-Antimycotic solution, 100×, manufactured by ThermoFisher Scientific Inc.) in which normal human skin fibroblasts (NHDF, manufactured by Cambrex Corporation) were suspended at a cell density of 5×10^5 cells/mL was added to 29 mL of the gel solution I. About 3.5 mL of a gel solution containing the cells was added to the cell culture insert, and the mixture was allowed to stand in a 37° C. incubator for 30 minutes to gel.
as §1
• (3) The medium was replaced with a cornification medium (CM medium), and the cell culture insert was placed such that a porous membrane of the cell culture insert was located at a gas-liquid interface of the cornification medium. In this state, the cells were subjected to gas-liquid interface culture at 37° C. for 7 to 14 days to induce differentiation, thereby obtaining three-dimensional cultured skin. The medium was replaced every two days from the start of the culture.

[5] = test system: human normal skin keratinocytes on collagen gel containing pretreated NHDF; assay: Three-dimensional cultured skin using fibroblasts pretreated with trehalose (Test Example 4); type: cell-based
Procedure: • (1) NHDF was seeded on a cell culture dish containing 10% FCS and 1% ABAM-containing DMEM medium at a cell density of 4.0×10^4 cells/cm^2. After 24 hours from seeding, at a cell density of 4.5×10^4 cells/cm^2, the medium was replaced with 1% FCS and 1% ABAM-containing DMEM medium containing 0, 30, or 100 mg/mL trehalose, and the cells were incubated at 37° C. for 24 hours. Then, a collagen gel containing 5.0×10^5 cells/ml of the obtained NHDF was prepared under the same conditions as in Test Example 1 except that trehalose was not added. • (2) According to the method of Test Example 1, the obtained NHDF-containing collagen gel was pre-cultured for 5 days, and then human normal skin keratinocytes were seeded and cultured for 2 days at 37° C. • (3) Further, according to the method of Test Example 1, gas-liquid interface culture was performed at 37° C. for 7 days using CM medium.

[6] = test system: fibroblasts of the dermal tissue layer of three-dimensional cultured skin; assay: Cell proportion per cell cycle by flow cytometry (FCM), PI staining (Test Example 1); type: cell-based, human
Procedure: • (5) Of the obtained three-dimensional cultured skin, a dermal tissue layer composed of fibroblasts was separated and DNA-stained with propidium iodide (PI). Next, the proportion of fibroblasts for each cell cycle was analyzed by FCM using Cycle TEST PLUS DNA Reagent Kit (manufactured by BD).

[7] = test system: β-actin; assay: Western blotting of β-actin in fibroblasts (Test Example 3-1); type: cell-based, human; conditions: 0, 10, 100 mg/mL trehalose in medium, 24 hours
Procedure: as §2, §3

[8] = 100 mg/mL trehalose, after 24 hours
[9] = 100 mg/mL trehalose, after 48 hours
[10] = culture to which trehalose was added
[11] = Trehalose concentration 100 mg/mL, n = 2, averages

OC[C@H]1O[C@H](O[C@H]2O[C@H](CO)[C@@H](O)[C@H](O)[C@H]2O)[C@H](O)[C@@H](O)[C@@H]1O [trehalose, α, α-trehalose]
FGF2 expression level compared to control without trehalose (vehicle) ([1]; 30 mg/mL trehalose): increase
expression level of FGF2 mRNA ([1]; 30 mg/mL trehalose, after 48 hours): slightly increased
FGF2 expression level compared to control without trehalose (vehicle) ([1]; 100 mg/mL trehalose): increase
FGF2 mRNA expression level compared to that at the start of the culture [1, 8]: still also increased
FGF2 mRNA expression level compared to the control [1, 8]: significantly increased
FGF2 mRNA expression level compared to that at the start of the culture [1, 9]: still also increased
FGF2 mRNA expression level compared to the control [1, 9]: significantly increased
formation of epithelial tissue layer [2]: not observed
phosphorylation of ERK1/2 [3]: promoted as the concentration of trehalose in the medium increases
area of the epithelial tissue layer formed ([4]; 10 mg/mL trehalose added to collagen gel containing fibroblasts, compared to no trehalose): slightly enlarged
area of the epithelial tissue layer formed ([4]; 100 mg/mL trehalose added to collagen gel containing fibroblasts): extended to the outer edge of the insert and further expanded to protrude to the outside of the insert
contraction of the collagen gel [4, 10]: not observed
wrinkles and rumples of the sheet-like epithelial tissue layer [4, 10]: without wrinkles and rumples
contraction of the collagen gel ([5]; fibroblast cells pre-cultured with trehalose): not observed
enlargement of three-dimensional cultured skin in diameter compared to pre-culturing with medium containing no trehalose ([5]; fibroblasts pre-cultured with 30 mg/mL trehalose for 24 hours before collagen gel preparation): about 1.4 times
area of three-dimensional cultured skin ([5]; fibroblasts pre-cultured with 100 mg/mL trehalose for 24 hours before collagen gel preparation): enlarged to cover the entire cell culture insert
proportions of fibroblasts in S phase and G2 phase ([6]; 100 mg/mL vs 0 mg/mL trehalose): significantly increased
Proportion of cells in cell cycle, G1 [6, 11]: 62.5%
Proportion of cells in cell cycle, G2 [6, 11]: 14.0%
Proportion of cells in cell cycle, S [6, 11]: 15.3%
synthesis amount of β-actin [7]: increased depending on the amount of trehalose
